This passage reports CD44 expression level results from patent US11452725B2, “Chiral diaryl macrocycles and uses thereof” (TURNING POINT THERAPEUTICS, INC., priority 2015, dated 2022).

Structures are written as SMILES.

The test system of the assay is CD44. The assay can be described thus: CD44 expression by immunoblotting in H2228 cells. In kind it is cell-based, human. The conditions noted are these: 48 hours treatment, 0-1000 nM. Here is the method: NSCLC cell line H2228 (harboring endogenous EML4-ALK fusion gene) was cultured in RPMI medium supplemented with 10% fetal bovine serum and 100 U/mL of penicillin/streptomycin. Ba/F3 and NIH3T3 cells stably expressing ROS1, or TRKA, or TRKB, or TRKC (WT or mutant) were cultured as mentioned above. […] Cells were collected after treatment and lysed in RIPA buffer (50 mM Tris, pH 7.4, 150 mM NaCl, 1% NP-40, 0.5% Deoxycholate, 0.1% SDS) supplemented with 10 mM EDTA, 1× Halt protease and phosphatase inhibitors (Thermo Scientific). Protein lysates (approximately 20 μg) was resolved on 4-12% Bolt Bis-Tris precasted gels with MES running buffer (Life Technologies), transferred to nitrocellulose membranes using Trans-Blot Turbo Transfer System (Bio-Rad) and detected with antibodies targeting phosphorylated phosphorylated ROS1 and total ROS1 (Cell Signaling Technology), phosphorylated TRK A/B (Cell Signaling Technology), total TRKA antibody (Santa Cruz Biotechnology), phosphorylated SRC Y416 (Cell Signaling Technology), total SRC (Cell Signaling Technology), phosphorylated FAK Y576/577 (Cell Signaling Technology), total FAK (Cell Signaling Technology), phosphorylated paxillin Y118 (Cell Signaling Technology), total paxillin (Cell Signaling Technology), phosphorylated EGFR and total EGFR, CD44, and Tubulin (Sigma). […]
On the technique in general: In western blotting, separated proteins are transferred to a membrane and probed.

For the compound `C[C@@H](Oc1cc(-c2cnn(C3CCNCC3)c2)cnc1N)c1c(Cl)ccc(F)c1Cl` [crizotinib, reference compound], the CD44 expression level entry is reported as “does not show down-regulation of CD44 expression”.
